# Like-named read-outs stand apart in the source and are kept apart here.
# Experiments:
# TRKA [1] = biological target: T1, TRKA (Homo sapiens (Human), UniProt P04629); experiment: HTRF kinase activity assay, TRKA; assay type: biochemical; conditions: 90 μM ATP
# Procedure: The IC50 values of the compounds were calculated using XLFIT5 (IDBS) software.
# ROS1 = ROS1 (Homo sapiens (Human), UniProt P08922); experiment: Mobility shift assay, ROS1 kinase; assay type: biochemical; conditions: ATP 26.7 μM
# Chain of ROS1 (P08922 28-2347): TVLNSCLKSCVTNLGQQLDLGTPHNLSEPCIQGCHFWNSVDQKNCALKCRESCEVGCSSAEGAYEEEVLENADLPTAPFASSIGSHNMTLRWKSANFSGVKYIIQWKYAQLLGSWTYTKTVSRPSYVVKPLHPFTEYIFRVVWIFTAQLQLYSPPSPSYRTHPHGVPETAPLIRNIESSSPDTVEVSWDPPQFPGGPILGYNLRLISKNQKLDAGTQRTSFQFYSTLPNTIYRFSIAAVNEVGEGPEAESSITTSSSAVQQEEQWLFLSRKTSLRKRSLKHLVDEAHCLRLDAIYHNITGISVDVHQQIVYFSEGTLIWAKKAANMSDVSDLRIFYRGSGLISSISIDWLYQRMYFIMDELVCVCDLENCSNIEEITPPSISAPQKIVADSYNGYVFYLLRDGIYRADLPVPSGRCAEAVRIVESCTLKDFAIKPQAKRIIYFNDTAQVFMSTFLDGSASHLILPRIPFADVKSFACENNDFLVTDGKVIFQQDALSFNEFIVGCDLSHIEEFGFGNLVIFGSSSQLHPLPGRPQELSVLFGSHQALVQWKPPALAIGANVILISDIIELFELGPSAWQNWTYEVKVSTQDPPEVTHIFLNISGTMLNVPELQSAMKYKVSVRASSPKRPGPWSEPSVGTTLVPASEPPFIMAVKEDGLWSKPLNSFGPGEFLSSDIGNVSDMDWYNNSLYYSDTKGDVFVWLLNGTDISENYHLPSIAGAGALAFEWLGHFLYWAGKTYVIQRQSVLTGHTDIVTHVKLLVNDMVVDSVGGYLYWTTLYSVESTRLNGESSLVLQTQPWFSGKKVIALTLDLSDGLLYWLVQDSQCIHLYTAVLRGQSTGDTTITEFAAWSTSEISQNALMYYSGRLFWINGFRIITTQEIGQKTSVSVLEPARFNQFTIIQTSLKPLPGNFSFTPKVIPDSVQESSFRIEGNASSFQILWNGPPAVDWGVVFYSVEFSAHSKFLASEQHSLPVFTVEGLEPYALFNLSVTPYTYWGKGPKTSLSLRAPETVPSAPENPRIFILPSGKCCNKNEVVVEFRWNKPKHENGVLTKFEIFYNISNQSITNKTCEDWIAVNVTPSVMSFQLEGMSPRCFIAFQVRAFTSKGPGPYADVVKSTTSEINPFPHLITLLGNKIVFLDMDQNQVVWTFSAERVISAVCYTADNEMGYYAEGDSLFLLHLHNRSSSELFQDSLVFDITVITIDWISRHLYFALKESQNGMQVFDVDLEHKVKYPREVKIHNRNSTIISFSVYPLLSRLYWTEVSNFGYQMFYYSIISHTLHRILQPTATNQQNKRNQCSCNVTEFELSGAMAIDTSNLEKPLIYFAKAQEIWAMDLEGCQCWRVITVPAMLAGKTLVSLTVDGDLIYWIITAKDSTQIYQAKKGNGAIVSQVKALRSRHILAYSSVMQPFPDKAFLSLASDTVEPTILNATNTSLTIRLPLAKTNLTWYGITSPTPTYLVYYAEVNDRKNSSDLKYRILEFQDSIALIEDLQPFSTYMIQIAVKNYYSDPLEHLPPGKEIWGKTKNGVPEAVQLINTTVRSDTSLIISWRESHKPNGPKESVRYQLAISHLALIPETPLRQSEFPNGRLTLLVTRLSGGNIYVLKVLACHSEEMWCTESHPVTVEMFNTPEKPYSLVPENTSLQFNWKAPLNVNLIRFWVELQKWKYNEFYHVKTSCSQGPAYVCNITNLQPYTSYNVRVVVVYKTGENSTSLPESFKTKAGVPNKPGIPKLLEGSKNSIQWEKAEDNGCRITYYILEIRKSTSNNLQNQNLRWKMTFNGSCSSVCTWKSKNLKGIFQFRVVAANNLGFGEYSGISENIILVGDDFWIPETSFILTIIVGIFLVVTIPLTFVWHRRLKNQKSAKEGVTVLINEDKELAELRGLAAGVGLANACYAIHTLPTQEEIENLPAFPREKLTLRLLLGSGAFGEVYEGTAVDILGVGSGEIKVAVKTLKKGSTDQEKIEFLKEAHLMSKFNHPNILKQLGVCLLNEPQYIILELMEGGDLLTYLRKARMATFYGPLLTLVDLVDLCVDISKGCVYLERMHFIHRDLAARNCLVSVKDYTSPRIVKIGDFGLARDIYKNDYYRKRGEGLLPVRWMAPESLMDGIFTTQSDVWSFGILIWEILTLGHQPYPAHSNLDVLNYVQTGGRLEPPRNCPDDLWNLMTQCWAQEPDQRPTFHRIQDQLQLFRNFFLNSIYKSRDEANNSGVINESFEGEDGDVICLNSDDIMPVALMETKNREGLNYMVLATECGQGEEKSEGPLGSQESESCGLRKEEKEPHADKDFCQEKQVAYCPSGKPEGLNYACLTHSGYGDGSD
# Text: (§1) The operation is described as follows:
# (§2) Conversion %_Sample: conversion rate of sample;
# TRKA [2] = biological target: T1, TRKA; experiment: Mobility shift assay, TRKA kinase; assay type: biochemical; conditions: ATP 47.8 μM
# Text: as §1, §2
# TRKB = TRKB (Homo sapiens (Human), UniProt Q16620); experiment: Mobility shift assay, TRKB kinase; conditions: read-out: TRKB IC50, ATP 71.2 μM
# Chain of TRKB (Q16620 32-822): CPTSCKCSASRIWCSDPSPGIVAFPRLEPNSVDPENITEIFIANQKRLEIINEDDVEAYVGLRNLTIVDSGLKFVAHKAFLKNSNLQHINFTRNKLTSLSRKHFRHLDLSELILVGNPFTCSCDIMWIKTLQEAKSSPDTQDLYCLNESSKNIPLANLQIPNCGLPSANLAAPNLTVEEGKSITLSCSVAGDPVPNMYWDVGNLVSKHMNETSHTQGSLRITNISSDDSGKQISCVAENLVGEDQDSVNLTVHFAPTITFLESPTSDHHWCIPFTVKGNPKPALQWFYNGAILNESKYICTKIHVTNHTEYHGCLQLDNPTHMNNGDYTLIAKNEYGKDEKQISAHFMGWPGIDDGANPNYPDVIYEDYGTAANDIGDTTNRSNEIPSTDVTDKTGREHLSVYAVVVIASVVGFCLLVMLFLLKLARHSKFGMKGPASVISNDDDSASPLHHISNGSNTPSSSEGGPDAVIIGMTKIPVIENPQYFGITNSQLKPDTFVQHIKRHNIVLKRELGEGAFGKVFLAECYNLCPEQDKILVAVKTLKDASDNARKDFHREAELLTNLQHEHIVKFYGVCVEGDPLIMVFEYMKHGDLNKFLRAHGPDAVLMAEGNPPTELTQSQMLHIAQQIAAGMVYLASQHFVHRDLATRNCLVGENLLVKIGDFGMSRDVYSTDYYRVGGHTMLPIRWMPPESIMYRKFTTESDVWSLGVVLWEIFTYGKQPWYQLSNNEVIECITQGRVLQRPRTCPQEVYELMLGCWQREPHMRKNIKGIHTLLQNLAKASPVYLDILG
# Procedure: The inhibitory activity of compounds on TRKA, TRKB, TRKC and ROS1 kinase was analyzed with Mobility shift assay. The screening platform is MSA based microfluidic chip technology, which applies the basic concept of capillary electrophoresis to microfluidic environment. The substrate used in the experiment is a poly-peptide labeled with fluorescent. Under the catalysis of enzyme in the reaction system, the substrate is transformed into a product, with the charge changed accordingly. MSA technology could detect the substrate and the product with different charge separately.
# The compound powder was dissolved in 100% DMSO (Sigma, Cat. D8418-1l) to prepare a 10 mM storage solution. […] The reaction was carried out at room temperature for 30 min/40 min/20 min/20 min respectively. After the reaction was terminated, the conversion rate was read by Caliper EZ Reader II.
# Conversion %_Min: mean value of negative control, representing the conversion rate without enzyme activity;
# Conversion %_Max: mean value of positive control, which represents the conversion rate reading without compound inhibition.
# Taking the log value of concentration as X axis and the percentage inhibition rate as Y axis, the dose response curve was fitted by the analysis software GraphPad Prism 5, thus the IC50 value of each compound on enzyme activity inhibition was obtained.
# TRKC = TRKC (Homo sapiens (Human), UniProt Q16288); experiment: Mobility shift assay, TRKC kinase; conditions: read-out: TRKC IC50, ATP 44.4 μM
# Chain of TRKC (Q16288 other isoform, or with tags, fused parts or gaps isoform Q16288-3): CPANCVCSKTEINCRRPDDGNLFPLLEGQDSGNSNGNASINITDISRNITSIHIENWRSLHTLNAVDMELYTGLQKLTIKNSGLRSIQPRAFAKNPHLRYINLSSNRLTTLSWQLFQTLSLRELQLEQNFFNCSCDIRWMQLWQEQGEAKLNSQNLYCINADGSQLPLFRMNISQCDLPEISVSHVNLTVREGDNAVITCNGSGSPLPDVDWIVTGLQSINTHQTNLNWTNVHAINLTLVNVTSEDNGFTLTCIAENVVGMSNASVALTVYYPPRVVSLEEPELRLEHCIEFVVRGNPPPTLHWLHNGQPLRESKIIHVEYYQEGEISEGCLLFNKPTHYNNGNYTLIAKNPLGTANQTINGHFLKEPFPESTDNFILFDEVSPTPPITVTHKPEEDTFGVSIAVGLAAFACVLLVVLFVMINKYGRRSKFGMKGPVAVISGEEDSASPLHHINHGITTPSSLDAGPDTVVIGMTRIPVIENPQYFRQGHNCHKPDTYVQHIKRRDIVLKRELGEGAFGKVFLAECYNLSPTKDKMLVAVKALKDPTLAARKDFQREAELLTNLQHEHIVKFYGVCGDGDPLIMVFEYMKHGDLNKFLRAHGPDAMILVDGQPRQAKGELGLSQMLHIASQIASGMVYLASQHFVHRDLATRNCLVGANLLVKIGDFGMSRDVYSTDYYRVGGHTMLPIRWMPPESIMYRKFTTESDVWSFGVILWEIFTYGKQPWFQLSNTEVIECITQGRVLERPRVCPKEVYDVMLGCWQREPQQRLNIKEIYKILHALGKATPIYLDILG
# Ba/F3 LMNA-NTRK1-G595R = experiment: Cell proliferation inhibition (CellTiter-Glo), Ba/F3 LMNA-NTRK1-G595R; assay type: cell-based; conditions: Mus musculus, BaF3, 72 h, test batch marked *
# Text: (§3) 4. Inhibitory Effect of Compounds on the Proliferation of TRK Fusion and Mutant Stable Cell Lines (IC50)
# (§4) Six cell lines including Ba/F3 LMNA-NTRK1-WT, Ba/F3 LMNA-NTRK1-G595R, Ba/F3 ETV6-NTRK2-WT, Ba/F3 ETV6-NTRK2-G639R, Ba/F3 ETV6-NTRK2-G639R and Ba/F3 ETV6-NTRK3-G623R were used in this experiment.
# (§5) The operation is described briefly as follows:
# (§6) The cells in logarithmic growth phase were harvested to ensure that the cell viability was above 90%. […] Then each well containing the cells of the 96-well plate was added the compound solutions, 3 wells for each compound solution, and continued to incubate for another 72 hrs. Then CellTiter-Glo® kit (Promega, Cat #G7572) was used to do the detection. First, the CTG reagent was melted and the cell plate was balanced to room temperature. The same volume of CTG solution was added into each well and vibrated on the shaker for 5 minutes to lyse the cells. The cell plate was kept at room temperature for 20 minutes to stabilize the luminescent signal. […] Cell survival rate (%)=(1umdrug−1ummedium)/(1umcell−lummedium)×100%
# Ba/F3 ETV6-NTRK3-WT = experiment: Cell proliferation inhibition (CellTiter-Glo), Ba/F3 ETV6-NTRK3-WT; assay type: cell-based; conditions: Mus musculus, BaF3, 72 h, read-out: IC50 proliferation Ba/F3 ETV6-NTRK3-WT
# Ba/F3 ETV6-NTRK2-G639R = experiment: Cell proliferation inhibition (CellTiter-Glo), Ba/F3 ETV6-NTRK2-G639R; assay type: cell-based; conditions: Mus musculus, BaF3, 72 h, read-out: IC50 proliferation Ba/F3 ETV6-NTRK2-G639R
# Procedure: as §3
# (§7) Six cell lines including Ba/F3 LMNA-NTRK1-WT, Ba/F3 LMNA-NTRK1-G595R, Ba/F3 ETV6-NTRK2-WT, Ba/F3 ETV6-NTRK2-G639R, Ba/F3 ETV6-NTRK2-G639R and Ba/F3 ETV6-NTRK3-G623R were used in this experiment. For the six cell lines, the maximum test concentration of the compound was 1 μM, 1 μM, 10 μM, […], 1 μM and 10 μM, were 3.16-fold gradient diluted to obtain 9 samples.
# as §5
# (§8) The cells in logarithmic growth phase were harvested to ensure that the cell viability was above 90%. 3000 cell/well were seeded in 96-well plate (Corning, Cat #3603). The cells were incubated overnight with 5% CO2, 95% humidity at 37° C. Then each well containing the cells of the 96-well plate was added the compound solutions, 3 wells for each compound solution, and continued to incubate for another 72 hrs. Then CellTiter-Glo® kit (Promega, Cat #G7572) was used to do the detection. First, the CTG reagent was melted and the cell plate was balanced to room temperature. The same volume of CTG solution was added into each well and vibrated on the shaker for 5 minutes to lyse the cells. The cell plate was kept at room temperature for 20 minutes to stabilize the luminescent signal. The luminescent value was collected by SpectraMax microplate detector (MD, 2104-0010A). […] Cell survival rate (%)=(1umdrug−1ummedium)/(1umcell−lummedium)×100%
# Ba/F3 ETV6-NTRK2-WT = experiment: Cell proliferation inhibition (CellTiter-Glo), Ba/F3 ETV6-NTRK2-WT; assay type: cell-based; conditions: Mus musculus, BaF3, 72 h, read-out: IC50 proliferation Ba/F3 ETV6-NTRK2-WT
# Procedure: as §3, §7, §5, §8
# Ba/F3 LMNA-NTRK1-WT = experiment: Cell proliferation inhibition (CellTiter-Glo), Ba/F3 LMNA-NTRK1-WT; assay type: cell-based; conditions: Mus musculus, BaF3, 72 h, test batch marked *
# Text: as §3, §4, §5, §6
# [3] = Blood-to-brain distribution in rats; assay type: in vivo; conditions: male, SD, rat, 10 mg/kg single oral gavage
# Procedure: 7. Blood-to-Brain Distribution
# Male SD rats were grouped, each group having 12 rats. Each group was given the compound of Examples (10 mg/kg) by single oral gavage. The animals were fasted overnight from 10 hours before administration to 4 hours after administration. The rats were killed at 0.5, 1, 4 and 12 hours after administration, and blood and brain tissues were collected. The samples were centrifuged at 4000 rpm at 4° C. for 5 min and plasma was transferred into the centrifuge tube and stored at −80° C. until analysis. The extract from the plasma extracted by protein precipitation was analyzed by LC/MS/MS.
# Ba/F3 LMNA-NTRK3-G623R = experiment: Cell proliferation inhibition (CellTiter-Glo), Ba/F3 LMNA-NTRK3-G623R; assay type: cell-based; conditions: Mus musculus, BaF3, 72 h, read-out: IC50 proliferation Ba/F3 LMNA-NTRK3-G623R
# [4] = Pharmacokinetic analysis in rats; assay type: in vivo, Male SD rats; conditions: male, SD, plasma; rat, PO, 5 mg/kg
# Procedure: 6. Pharmacokinetic Analysis
# Male SD rats were grouped, each group having 3 rats. […] Animals were fasted overnight from 10 hours before administration to 4 hours after administration. Blood samples were collected at 0.25, 0.5, 1, 2, 4, 8 and 24 hours after administration in the oral group and at 0.083, 0.25, 0.5, 1, 2, 4, 8 and 24 hours after injection in the intravenous group. After isoflurane anesthesia, 0.3 ml whole blood collected through the fundus vein plexus was put into the heparin anticoagulant tube. The sample was centrifuged at 4° C. at 4000 rpm for 5 min. The plasma was transferred into the centrifuge tube and stored at −80° C. until analysis. The extract from the plasma extracted by protein precipitation was analyzed by LC/MS/MS.
# T1 sequence (P04629 33-796): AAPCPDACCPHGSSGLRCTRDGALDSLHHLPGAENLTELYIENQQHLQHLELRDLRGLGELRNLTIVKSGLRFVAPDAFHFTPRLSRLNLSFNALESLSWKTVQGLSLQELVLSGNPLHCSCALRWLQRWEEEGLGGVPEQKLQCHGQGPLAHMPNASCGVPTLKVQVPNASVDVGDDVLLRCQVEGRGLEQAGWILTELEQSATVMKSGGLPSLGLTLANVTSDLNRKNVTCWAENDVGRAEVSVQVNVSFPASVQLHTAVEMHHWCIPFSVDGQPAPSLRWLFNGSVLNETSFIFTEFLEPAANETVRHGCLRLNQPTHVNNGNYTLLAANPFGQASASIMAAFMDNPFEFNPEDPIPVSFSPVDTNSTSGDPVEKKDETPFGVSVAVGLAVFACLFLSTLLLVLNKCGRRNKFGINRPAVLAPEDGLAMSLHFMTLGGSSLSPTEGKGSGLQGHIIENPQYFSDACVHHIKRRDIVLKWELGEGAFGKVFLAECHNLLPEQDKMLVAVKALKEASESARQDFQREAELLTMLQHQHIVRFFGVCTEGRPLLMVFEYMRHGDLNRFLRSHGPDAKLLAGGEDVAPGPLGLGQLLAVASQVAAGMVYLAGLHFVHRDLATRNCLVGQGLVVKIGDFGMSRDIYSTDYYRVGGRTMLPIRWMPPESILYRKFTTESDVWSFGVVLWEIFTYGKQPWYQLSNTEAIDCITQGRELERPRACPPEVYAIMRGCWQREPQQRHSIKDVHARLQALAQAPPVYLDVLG
IC50 (ROS1) [nM],IC50 (TRKA [2]) [nM],IC50 (TRKB) [nM],IC50 (TRKC) [nM],Structure (SMILES),further results
,,,,CCc1cc2c(cc1N1CCC(N3CCOCC3)CC1)C(C)(C)c1[nH]c3cc(C#N)ccc3c1C2=O [Alectinib],IC50 (TRKA [1]): 60.4 nM
,,,,Cc1cc(Nc2ncc(Cl)c(Nc3ccccc3S(=O)(=O)C(C)C)n2)c(OC(C)C)cc1C1CCNCC1 [Ceritinib],IC50 (TRKA [1]): 182 nM
0.78,0.75,1.2,1.2,"C[C@@H]1COc2ccc(F)cc2[C@@H](C)Nc2ccn3ncc(c3n2)C(=O)O1 [Example 6, (1^3E,1^4E,3R,7R)-4^5-fluoro-3,7-dimethyl-5,8-dioxa-2-aza-1(5,3)-pyrazolo[1,5-a]pyrimidina-4(1,2)-benzenacyclononaphan-9-one]",
0.54,0.59,0.86,0.76,"C[C@H]1COC(=O)c2cnn3ccc(nc23)N[C@H](C)c2cc(F)ccc2S1 [Example 9, (1^3E,1^4E,3R,6S)-4^5-fluoro-3,6-dimethyl-8-oxa-5-thia-2-aza-1(5,3)-pyrazolo[1,5-a]pyrimidina-4(1,2)-benzenacyclononaphan-9-one]",
1.9,0.62,0.9,0.73,"C[C@H]1Nc2ccn3ncc(c3n2)C(=O)OCCOc2ccc(F)cc21 [Example 13, (R,1^3E,1^4E)-4^5-fluoro-3-methyl-5,8-dioxa-2-aza-1(5,3)-pyrazolo[1,5-a]pyrimidina-4(1,2)-benzenacyclononaphan-9-one]",
4.8,0.39,0.48,0.63,"C[C@@H]1c2cc(F)ccc2OCCOC(=O)c2cnn3ccc(nc23)N1C [Example 23, (R,1^3E,1^4E)-4^5-fluoro-2,3-dimethyl-5,8-dioxa-2-aza-1(5,3)-pyrazolo[1,5-a]pyrimidina-4(1,2)-benzenacyclononaphan-9-one]",
0.29,0.56,0.6,0.75,"C[C@H]1Nc2ccn3ncc(c3n2)C(=O)OCC(F)(F)Oc2ccc(F)cc21 [Example 24, (R,1^3E,1^4E)-4^5,6,6-trifluoro-3-methyl-5,8-dioxa-2-aza-1(5,3)-pyrazolo[1,5-a]pyrimidina-4(1,2)-benzenacyclononaphan-9-one]",
1.2,1.1,1.6,1.1,"C[C@H]1Nc2ccn3ncc(c3n2)C(=O)OCCSc2ccc(F)cc21 [Example 25, (R,1^3E,1^4E)-4^5-fluoro-3-methyl-8-oxa-5-thia-2-aza-1(5,3)-pyrazolo[1,5-a]pyrimidina-4(1,2)-benzenacyclononaphan-9-one]",
,,,,"O=C(Nc1cnn2ccc(N3CCC[C@@H]3c3cc(F)ccc3F)nc12)N1CC[C@H](O)C1 [LOXO-101, reference compound]","IC50 (Ba/F3 LMNA-NTRK1-G595R): 2170 nM; IC50 (Ba/F3 ETV6-NTRK3-WT; 72 hrs, test batch marked *): 6.8 nM; IC50 (Ba/F3 ETV6-NTRK2-G639R; 72 hrs, test batch marked *): 8180 nM; IC50 (Ba/F3 ETV6-NTRK2-WT; 72 hrs, test batch marked *): 75.3 nM; IC50 (Ba/F3 LMNA-NTRK1-WT): 47.4 nM"
,,,,C[C@H]1Oc2cc(cnc2N)-c2c(nn(C)c2C#N)CN(C)C(=O)c2ccc(F)cc21 [Lorlatinib],IC50 (TRKA [1]): 6.2 nM
,,,,"C[C@H]1CNC(=O)c2cnn3ccc(nc23)N[C@H](C)c2cc(F)ccc2O1 [TPX-0005, reference compound]","Kp ([3]; brain/plasma, AUC0-inf ratio): 0.17; AUC(0-inf) ([3]; brain, read-out: AUC0-inf Brain): 2.35 µM·h; AUC(0-inf) ([3]; plasma, read-out: AUC0-inf Plasma): 13.9 µM·h; IC50 (Ba/F3 ETV6-NTRK3-WT): 0.8 nM; IC50 (Ba/F3 ETV6-NTRK2-G639R): 86.6 nM; IC50 (Ba/F3 ETV6-NTRK2-WT): 2.5 nM; IC50 (Ba/F3 LMNA-NTRK3-G623R): 9 nM; AUC(0-inf) [4]: 2950 ng·h/mL; Cmax [4]: 503 ng/mL; Tmax [4]: 1.33 h; half-life [4]: 3.55 h"

# Reference: patent US12129258B2, “Diaryl macrocyclic compound and pharmaceutical composition, and use thereof” (PrimeGene (Beijing) Co., Ltd., priority 2018, dated 2024)
